The numbers were not newly measured in patent US20260271921A1, “DILUTION-INDUCED RELEASE COMPOSITIONS AND METHODS OF USE THEREOF” (priority 2025, published 2026), which cites them from elsewhere.

As usually defined, the logP is a log measure of how a compound divides between an organic and an aqueous phase.

For `CCN(CC)c1ccc2nc3c4ccccc4c(=O)cc-3oc2c1` [Nile Red], the logP is given as 3.65.
